Values joined by “and” are separate entries in the source; they are usually repeats but may differ in a detail not shown here. Identical values can stand only once.
Legend:
[1] = test system: Tgfb1; experiment: qPCR of liver RNA: Tgfb1; type: in vivo, Male Sprague-Dawley rats
Method in brief: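 Liver total RNA (1 μg) reverse-transcribed; SYBR Green qPCR, 40 cycles, comparative CT normalised to Gapdh and Actb. Fold change tested against 1.0 by one-sample t-test; dose groups compared by Kruskal-Wallis with Dunnett's test, p<0.05.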

[2] = test system: 67 genes on the fibrosis gene panel; experiment: Multiplexed fibrosis gene panel (QuantiGene 2.0 Plex / Bioplex) on liver RNA; conditions: liver RNA, individual animals; Carbon Tetrachloride 200, Bromobenzene 785, Dexamethasone 1 mg/kg

## C[C@@H]1C[C@H]2[C@@H]3CCC4=CC(=O)C=C[C@]4(C)[C@@]3(F)[C@@H](O)C[C@]2(C)[C@@]1(O)C(=O)CO [dexamethasone]
[1]; 44.8 mg/kg
  Tgfb1 gene expression by qPCR: the difference was not statistically significant
[1]; 1, 6.7, or 300 mg/kg
  Tgfb1 gene expression by qPCR: significantly downregulated
[1]; liver, across dose groups, vs control
  Tgfb1 gene expression by qPCR: decreased gene expression
[2]
  Differential Expression of A2m: −1.370 and −0.649 and −0.615 and −0.252
  Differential Expression of Angptl3: 0.029 and −0.467 and −0.241
  Differential Expression of Anxa2: 0.519 and 0.194 and −0.132 and 0.293
  Differential Expression of Apoc: −0.250 and −0.067 and −0.469 and −0.542
  Differential Expression of Arf6: −0.268 and −0.346 and −0.401 and 0.005
  Differential Expression of Arpc1b: −1.391 and −2.770 and −5.994 and −0.172
  Differential Expression of Arrb1: −0.840 and −2.152 and −3.043 and 0.703
  Differential Expression of C1qb: −0.174 and −0.655 and −0.257 and −0.222
  Differential Expression of CD9: 0.155 and −0.656 and −0.280 and 0.387
  Differential Expression of CD53: −0.716 and −3.901 and −5.862 and 0.006
  Differential Expression of CP: −0.134 and −0.634 and −0.952 and −0.558
  Differential Expression of Capg: −0.558 and −0.744 and −0.772 and −0.404
  Differential Expression of Ccl2: −0.272 and 0.250 and 0.043 and 1.019
  Differential Expression of Col1a1: −4.640 and −3.775 and −5.473 and −0.928
  Differential Expression of Col1a2: −0.960 and −1.057 and −2.208 and −1.081
  Differential Expression of Col4a1: −1.039 and −1.035 and −1.397 and −0.880
  Differential Expression of Col5a2: −0.407 and −0.910 and −2.382 and 0.311
  Differential Expression of Ctgf: −0.755 and 0.747 and −0.663 and 0.405
  Differential Expression of Cxcl1: 0.104 and 1.127 and 0.364 and 0.097
  Differential Expression of Cxcl12: −1.808 and −3.742 and −2.144 and −1.869
  Differential Expression of Cxcl16: −0.537 and −4.885 and 0.714
  Differential Expression of Cyba: −0.998 and −1.793 and −1.244 and −0.956
  Differential Expression of Dsc2: −0.209 and −0.593 and −0.466 and −0.248
  Differential Expression of Fam102b: −0.462 and −0.124 and −0.822 and −0.262
  Differential Expression of Fam105a: −0.295 and 0.195 and −0.809 and −0.294
  Differential Expression of Fbn1: −1.213 and −1.784 and −2.160 and −1.736
  Differential Expression of Fn1: 0.397 and 0.181 and −0.334 and −0.170
  Differential Expression of Fstl1: −1.085 and −1.346 and −1.183 and −0.931
  Differential Expression of Fxyd5: −0.247 and −0.412 and −0.305
  Differential Expression of Gpnmb: −0.018 and 1.304 and 0.968 and 1.447
  Differential Expression of Igfals: −0.678 and −2.820 and −1.013 and −1.310
  Differential Expression of Igfbp1: 1.132 and 1.740 and 0.780 and 0.489
  Differential Expression of Igfbp2: −0.258 and −0.949 and −1.156 and −0.041
  Differential Expression of Igfbp3: −1.125 and −1.454 and −2.523 and −1.663
  Differential Expression of Itga1: −2.088 and −3.379 and −2.849 and −1.903
  Differential Expression of Itgb2: −1.330 and −2.265 and −1.982 and −0.802
  Differential Expression of Lame2: −0.132 and 0.260 and −1.038 and 0.536
  Differential Expression of Lbp: 0.344 and −0.042 and 0.261 and −0.020
  Differential Expression of Len2: −0.470 and 0.418 and 0.883 and 0.535
  Differential Expression of Lgals1: 0.458 and −4.140 and −0.346 and 0.583
  Differential Expression of Lgals3: 0.011 and 0.320 and 0.370 and 0.526
  Differential Expression of Lgals3bp: −1.477 and −0.782 and −1.281 and −0.669
  Differential Expression of Lox: 0.278 and 0.412 and −0.164
  Differential Expression of Lrp1: −0.206 and −0.631 and −0.863 and −0.371
  Differential Expression of Lum: 0.593 and 0.401 and −0.997 and −0.078
  Differential Expression of Mmp2: −0.245 and −1.273 and −0.990 and −0.583
  Differential Expression of Nid1: −1.271 (2×) and −1.374 and −1.155
  Differential Expression of Pcolce: −1.293 and −1.196 and −1.572 and −0.246
  Differential Expression of Pkm2: −0.668 and −0.611 and −0.735 and −0.472
  Differential Expression of Plat: 0.103 and 0.075 and −0.461 and −0.335
  Differential Expression of Plau: −0.719 and −2.088 and −1.424 and −0.095
  Differential Expression of Plod2: −0.065 and 0.269 and −0.568 and −0.077
  Differential Expression of RT1-DMa: 3.152 and 2.497 and 3.371 and 2.417
  Differential Expression of RT1-Da: −4.927 and −7.563 and −4.272 and −3.443
  Differential Expression of S100A6: 0.650 and −0.047 and 0.843 and 0.695
  Differential Expression of S100A11: −0.377 and −0.570 and −0.732 and −0.465
  Differential Expression of Serpine1: 0.251 and 1.560 and 0.110 and 0.038
  Differential Expression of Serping1: 0.154 and 0.026 and −0.228 and 0.065
  Differential Expression of Slc25a24: −0.387 and −0.565 and −0.427
  Differential Expression of Sod2: −0.398 and −0.428 and −0.371 and −0.367
  Differential Expression of TagIn2: −0.486 and −0.918 and −0.563 and −0.566
  Differential Expression of Tgfb1: −1.193 and −1.526 and −1.328 and −1.429
  Differential Expression of Timp1: 0.026 and 0.464 and −0.134 and 1.004
  Differential Expression of Vhl: −0.300 and −1.037 and −0.787 and 0.504
  Differential Expression of Vim: −0.856 and −1.292 and −1.277
  Differential Expression of Vtn: −0.111 and −0.294 and −0.579 and −0.572
